Legend:
Format in all cases: in vivo
[1] = tested on: transplanted Oryza sativa; assay: Test Example 1: effect on crop, application before weed generation in submerged conditions; conditions: Application herbicide amount 320 g/ha; Seventeenth Table
Method in brief: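 Pre-emergence application to water surface of submerged pots (4 cm depth, alluvial soil) on sowing day, with 2.5-leaf rice transplanted; emulsion diluted to g/ha rates. Grown in greenhouse at 25–30 °C; 0–5 herbicidal/crop-effect score after three weeks.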

Apera spica-venti. = assay: Test Example 4: herbicidal effect by application to foliage (diluvial soil, plastic box); conditions: Application herbicide amount 320 g/ha
Method in brief: (§1)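 Plants were grown in sterilized diluvial soil in a greenhouse at 25-30° C for 14 days, then sprayed on stems and leaves with water-diluted emulsion formulation at set rates in g/ha. Weed control and crop injury were scored 3 weeks after treatment on a 0-5 herbicidal-ratio scale, from 0 (≤5%) to 5 (≥90%).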

[2] = tested on: Echinochloa crus-galli var. crus-galli; assay: as above; conditions: Application herbicide amount 320 g/ha
Method in brief: as §1

Chenopodium album = assay: as above; conditions: Application herbicide amount 320 g/ha
Method in brief: as §1

Galium spurium = assay: as above; conditions: Application herbicide amount 320 g/ha
Method in brief: as §1

Digitaria ciliaris = assay: as above; conditions: Application herbicide amount 320 g/ha
Method in brief: as §1

Abutilon theophrasti = assay: as above; conditions: Application herbicide amount 320 g/ha
Method in brief: as §1

Avena fatua = assay: as above; conditions: Application herbicide amount 320 g/ha
Method in brief: as §1

Veronica persica = assay: as above; conditions: Application herbicide amount 320 g/ha
Method in brief: as §1

Lolium multiflorum Lam. = assay: as above; conditions: Application herbicide amount 320 g/ha
Method in brief: as §1

Setaria viridis = assay: as above; conditions: Application herbicide amount 320 g/ha
Method in brief: as §1

Alopecurus myosuroides = assay: as above; conditions: Application herbicide amount 320 g/ha
Method in brief: as §1

Brassica campestris L. = assay: Test Example 4: effect on crop by application to foliage (diluvial soil, plastic box); conditions: Application herbicide amount 320 g/ha; effect on crop
Method in brief: as §1

[3] = tested on: Beta vulgaris ssp. vulgaris; assay: as above; conditions: Application herbicide amount 320 g/ha; effect on crop
Method in brief: as §1

Triticum aestivum = assay: as above; conditions: Application herbicide amount 320 g/ha; effect on crop
Method in brief: as §1

[4] = tested on: directly sowed Oryza sativa; assay: as above; conditions: Application herbicide amount 320 g/ha; effect on crop
Method in brief: as §1

Zea mays = assay: as above; conditions: Application herbicide amount 320 g/ha; effect on crop
Method in brief: as §1

Glycine max = assay: as above; conditions: Application herbicide amount 320 g/ha; effect on crop
Method in brief: as §1

| SMILES | a: transplanted Oryza sativa (effect on crop grade) [1] | L (Apera spica-venti.) | H [2] | O (Chenopodium album) | Q (Galium spurium) | F (Digitaria ciliaris) | M (Abutilon theophrasti) | I (Avena fatua) | R (Veronica persica) | K (Lolium multiflorum Lam.) | G (Setaria viridis) | J (Alopecurus myosuroides) | g (Brassica campestris L.) | f [3] | e (Triticum aestivum) | d [4] | b (Zea mays) | c (Glycine max) |
| --- | --- | --- | --- | --- | --- | --- | --- | --- | --- | --- | --- | --- | --- | --- | --- | --- | --- | --- |
| Cc1nnc(NC(=O)c2ccc(C(F)(F)F)n3c(-c4cc5ccccc5n4C)nnc23)o1 [1-059] | 0 (Herbicidal ratio of 5% or less (almost no effect)) | 0 (Herbicidal ratio of 5% or less (almost no effect)) | 2 (Herbicidal ratio of 20% or more and less than 40%) | 5 (Herbicidal ratio of 90% or more (almost completely withered)) | 0 (Herbicidal ratio of 5% or less (almost no effect)) | 0 (Herbicidal ratio of 5% or less (almost no effect)) | 4 (Herbicidal ratio of 70% or more and less than 90%) | 0 (Herbicidal ratio of 5% or less (almost no effect)) | 2 (Herbicidal ratio of 20% or more and less than 40%) | 0 (Herbicidal ratio of 5% or less (almost no effect)) | 0 (Herbicidal ratio of 5% or less (almost no effect)) | 0 (Herbicidal ratio of 5% or less (almost no effect)) | 0 (Herbicidal ratio of 5% or less (almost no effect)) | 0 (Herbicidal ratio of 5% or less (almost no effect)) | 0 (Herbicidal ratio of 5% or less (almost no effect)) | 0 (Herbicidal ratio of 5% or less (almost no effect)) | 0 (Herbicidal ratio of 5% or less (almost no effect)) | 0 (Herbicidal ratio of 5% or less (almost no effect)) |
| COCCOC(=O)Cc1nnc2c(C(=O)Nc3nnc(C)o3)ccc(C(F)(F)F)n12 [1-060] | 2 (Herbicidal ratio of 20% or more and less than 40%) | 1 (Herbicidal ratio of 5% or more and less than 20%) | 5 (Herbicidal ratio of 90% or more (almost completely withered)) | 5 (Herbicidal ratio of 90% or more (almost completely withered)) | 3 (Herbicidal ratio of 40% or more and less than 70%) | 5 (Herbicidal ratio of 90% or more (almost completely withered)) | 4 (Herbicidal ratio of 70% or more and less than 90%) | 3 (Herbicidal ratio of 40% or more and less than 70%) | 5 (Herbicidal ratio of 90% or more (almost completely withered)) | 2 (Herbicidal ratio of 20% or more and less than 40%) | 3 (Herbicidal ratio of 40% or more and less than 70%) | 2 (Herbicidal ratio of 20% or more and less than 40%) | 4 (Herbicidal ratio of 70% or more and less than 90%) | 5 (Herbicidal ratio of 90% or more (almost completely withered)) | 3 (Herbicidal ratio of 40% or more and less than 70%) | 4 (Herbicidal ratio of 70% or more and less than 90%) | 3 (Herbicidal ratio of 40% or more and less than 70%) | 0 (Herbicidal ratio of 5% or less (almost no effect)) |
| CC(=O)OCc1nnc2c(C(=O)Nc3nnc(C)o3)ccc(C(F)(F)F)n12 [1-062] | 0 (Herbicidal ratio of 5% or less (almost no effect)) | 1 (Herbicidal ratio of 5% or more and less than 20%) | 5 (Herbicidal ratio of 90% or more (almost completely withered)) | 5 (Herbicidal ratio of 90% or more (almost completely withered)) | 4 (Herbicidal ratio of 70% or more and less than 90%) | 5 (Herbicidal ratio of 90% or more (almost completely withered)) | 5 (Herbicidal ratio of 90% or more (almost completely withered)) | 3 (Herbicidal ratio of 40% or more and less than 70%) | 4 (Herbicidal ratio of 70% or more and less than 90%) | 0 (Herbicidal ratio of 5% or less (almost no effect)) | 3 (Herbicidal ratio of 40% or more and less than 70%) | 1 (Herbicidal ratio of 5% or more and less than 20%) | 4 (Herbicidal ratio of 70% or more and less than 90%) | 4 (Herbicidal ratio of 70% or more and less than 90%) | 2 (Herbicidal ratio of 20% or more and less than 40%) | 3 (Herbicidal ratio of 40% or more and less than 70%) | 3 (Herbicidal ratio of 40% or more and less than 70%) | 0 (Herbicidal ratio of 5% or less (almost no effect)) |
| COCCSc1nnc2c(C(=O)Nc3nnc(C)o3)ccc(C(F)(F)F)n12 [1-063] | 0 (Herbicidal ratio of 5% or less (almost no effect)) | 3 (Herbicidal ratio of 40% or more and less than 70%) | 5 (Herbicidal ratio of 90% or more (almost completely withered)) | 5 (Herbicidal ratio of 90% or more (almost completely withered)) | 3 (Herbicidal ratio of 40% or more and less than 70%) | 5 (Herbicidal ratio of 90% or more (almost completely withered)) | 4 (Herbicidal ratio of 70% or more and less than 90%) | 2 (Herbicidal ratio of 20% or more and less than 40%) | 5 (Herbicidal ratio of 90% or more (almost completely withered)) | 2 (Herbicidal ratio of 20% or more and less than 40%) | 5 (Herbicidal ratio of 90% or more (almost completely withered)) | 2 (Herbicidal ratio of 20% or more and less than 40%) | 3 (Herbicidal ratio of 40% or more and less than 70%) | 5 (Herbicidal ratio of 90% or more (almost completely withered)) | 2 (Herbicidal ratio of 20% or more and less than 40%) | 4 (Herbicidal ratio of 70% or more and less than 90%) | 0 (Herbicidal ratio of 5% or less (almost no effect)) | 3 (Herbicidal ratio of 40% or more and less than 70%) |
| C=CCSc1nnc2c(C(=O)Nc3nnc(C)o3)ccc(C(F)(F)F)n12 [1-064] | 0 (Herbicidal ratio of 5% or less (almost no effect)) | 1 (Herbicidal ratio of 5% or more and less than 20%) | 5 (Herbicidal ratio of 90% or more (almost completely withered)) | – | 3 (Herbicidal ratio of 40% or more and less than 70%) | 5 (Herbicidal ratio of 90% or more (almost completely withered)) | 3 (Herbicidal ratio of 40% or more and less than 70%) | 1 (Herbicidal ratio of 5% or more and less than 20%) | 3 (Herbicidal ratio of 40% or more and less than 70%) | 1 (Herbicidal ratio of 5% or more and less than 20%) | 4 (Herbicidal ratio of 70% or more and less than 90%) | 1 (Herbicidal ratio of 5% or more and less than 20%) | 3 (Herbicidal ratio of 40% or more and less than 70%) | 4 (Herbicidal ratio of 70% or more and less than 90%) | 0 (Herbicidal ratio of 5% or less (almost no effect)) | 3 (Herbicidal ratio of 40% or more and less than 70%) | 0 (Herbicidal ratio of 5% or less (almost no effect)) | 0 (Herbicidal ratio of 5% or less (almost no effect)) |
| CN(C)c1nnc2c(C(=O)Nc3nnco3)ccc(C(F)(F)F)n12 [1-103] | 3 (Herbicidal ratio of 40% or more and less than 70%) | 3 (Herbicidal ratio of 40% or more and less than 70%) | 5 (Herbicidal ratio of 90% or more (almost completely withered)) | 5 (Herbicidal ratio of 90% or more (almost completely withered)) | 4 (Herbicidal ratio of 70% or more and less than 90%) | 5 (Herbicidal ratio of 90% or more (almost completely withered)) | 4 (Herbicidal ratio of 70% or more and less than 90%) | 4 (Herbicidal ratio of 70% or more and less than 90%) | 5 (Herbicidal ratio of 90% or more (almost completely withered)) | 3 (Herbicidal ratio of 40% or more and less than 70%) | 5 (Herbicidal ratio of 90% or more (almost completely withered)) | 2 (Herbicidal ratio of 20% or more and less than 40%) | 5 (Herbicidal ratio of 90% or more (almost completely withered)) | 5 (Herbicidal ratio of 90% or more (almost completely withered)) | 3 (Herbicidal ratio of 40% or more and less than 70%) | 4 (Herbicidal ratio of 70% or more and less than 90%) | 1 (Herbicidal ratio of 5% or more and less than 20%) | 2 (Herbicidal ratio of 20% or more and less than 40%) |

Source: patent US9708314B2, “Heterocyclic amide compound” (NISSAN CHEMICAL INDUSTRIES, LTD., priority 2013, dated 2017)
